The values below come from PMC11304238, “Formulate Adaptive Biphasic Scaffold via Sequential Protein‐Instructed Peptide Co‐Assembly” (Advanced Science, 2024).

Where a SMILES comes first, the peptide text is derived from it. [ ]: non-standard residue; d: D form. The star is where a group is joined. Acetyl(2-naphthyl) = O=C(Cc1ccc2ccccc2c1)*; pY = N[C@@H](Cc1ccc(OP(=O)(O)O)cc1)C(=O)O

Series [1] has as its system hMSCs. It counts as cell-based, human. Conditions: hMSCs pre-cultured 3 days with P3, P5 or P6/P7 (200 µM), then 3 days P4 at various concentrations, osteogenic medium, n = 3. The method, then:
(§1) Cells were seeded onto a 96‐well flat‐bottom tissue culture plate (Corning, Falcon) at a density of 0.5 × 10^4 cells cm^−2 and incubated overnight to facilitate cell adhesion. The medium was then replaced with osteogenic medium containing various peptide compounds at concentrations ranging from 25 to 500 µM. As a control, cells were cultured in osteogenic medium supplemented with an equal volume of PBS. Subsequently, the cells were cultured for an additional 72 h, after which their viability was assessed using a WST‐1 assay kit (Roche Diagnostics, IN).
Figure S22. […]
Figure S23. Bright field images and fluorescence images of hMSCs upon the treatment of peptides P3, P5, and mixture of P6/P7 at a concentration of 200 µM for 3 days, followed with another 3-day treatment of P4 at a concentration of 200 µM in osteogenic medium. ‘Undifferentiated’ represents cell cultured in basal medium; ‘Ctrl’ represents cell cultured in osteogenic medium upon the treatment of 1xPBS buffer. […]
Figure S24. (a) Fluorescence images of hMSCs upon the treatment of peptides P3, P5, and mixture of P6/P7 at a concentration of 200 µM for 3 days, followed with another 3-day treatment of P4 at a concentration of 200 µM in osteogenic medium. ‘Undifferentiated’ represents cell cultured in basal medium; ‘Ctrl’ represents cell cultured in osteogenic medium upon the treatment of 1xPBS buffer. […]

Series [2] deals with hMSCs. Briefly: hMSC biocompatibility (viability, caspase 3/7, Ki67). It counts as cell-based, human. As to conditions: 3-day treatment at various concentrations (25 to 500 µM), basal medium, WST-1 viability, caspase 3/7 and Ki67 at 200 µM, n = 3. The method, then: as §1
Figure S12. Chemical structure of peptide P6.
Figure S13. Chemical structure of peptide P7.
Figure S14. 3-day hMSCs viability upon the treatment of peptides P1, P2, P3, and control peptides P5, 1:1 mixture of P6/P7 at various concentrations in basal medium (mean ± SD, n = 3).
Figure S15. Bright field images and fluorescence images of hMSCs upon the treatment of peptides P1, P2, P3, and control peptides P5, 1:1 mixture of P6/P7 at 200 µM in basal medium for 3 days and stained with caspase 3/7 (green). […]
Figure S16. (a) Fluorescence images of hMSCs upon the treatment of peptides P1, P2, P3, and control peptides P5, 1:1 mixture of P6/P7 at 200 µM in basal medium for 3 days and co-stained with hochest (blue) and Ki67 (red). […] (b) Quantification of Ki67 positive ratio in hMSCs upon the treatments of panel a (mean ± SD, n = 3). […]
A general note: Tetrazolium dyes change colour on reduction, which living cells bring about.

In the case of `O=C(O)CC[C@H](NC(=O)[C@H](Cc1ccc(OP(=O)(O)O)cc1)NC(=O)[C@H](Cc1ccccc1)NC(=O)[C@H](Cc1ccccc1)NC(=O)Cc1ccc2ccccc2c1)C(=O)O` [P4, NapFFYpE] ({Acetyl(2-naphthyl)}-FF[pY]E-OH), the “cytotoxicity of P4 on pre-cultured hMSCs” value in series [1] was “no cytotoxicity”.
In the case of `O=C(Cc1ccc2ccccc2c1)N[C@@H](Cc1ccccc1)C(=O)N[C@@H](Cc1ccccc1)C(=O)O` [P5, NapFF], the “biocompatibility with hMSCs” value in series [2] was “good biocompatibility”.
The same measure, in the same setting: as for `CC[C@H](C)[C@H](NC(=O)[C@H](CC(C)C)NC(=O)[C@H](CC(C)C)NC(=O)[C@H](CCCCN)NC(=O)[C@@H](NC(=O)[C@H](Cc1ccccc1)NC(=O)[C@H](Cc1ccccc1)NC(=O)[C@H](Cc1ccccc1)NC(=O)[C@H](CCCNC(=N)N)NC(=O)[C@H](CO)NC(=O)[C@H](CCCNC(=N)N)NC(=O)[C@@H](N)CCCCN)[C@@H](C)CC)C(=O)O` [P3, KRSRFFFIKLLI] (H-KRSRFFFIKLLI-OH), the entry is “good biocompatibility”.
